From US6673798B2, “PDGF receptor kinase inhibitory compounds, their preparation, purification and pharmaceutical compositions including same” (Yissum Research Development Company of the Hebrew …, priority 1999, dated 2004)
Like-named read-outs stand apart in the source and are kept apart here.

Experiments:
PDGF β-receptor = PDGF β-receptor (Homo sapiens, UniProt P09619); assay: PDGF-induced PDGFR autophosphorylation in intact PAEC cells; assay type: cell-based; design: expressed in transfected cells; host or cells: porcine aortic endothelial cells (PAEC), stably transfected; conditions: intact PAEC cells expressing PDGFR, PDGF-BB stimulated; read-out: IC50 (50% inhibition of phosphorylation) PDGFR
Chain of PDGF β-receptor (P09619 33-1106): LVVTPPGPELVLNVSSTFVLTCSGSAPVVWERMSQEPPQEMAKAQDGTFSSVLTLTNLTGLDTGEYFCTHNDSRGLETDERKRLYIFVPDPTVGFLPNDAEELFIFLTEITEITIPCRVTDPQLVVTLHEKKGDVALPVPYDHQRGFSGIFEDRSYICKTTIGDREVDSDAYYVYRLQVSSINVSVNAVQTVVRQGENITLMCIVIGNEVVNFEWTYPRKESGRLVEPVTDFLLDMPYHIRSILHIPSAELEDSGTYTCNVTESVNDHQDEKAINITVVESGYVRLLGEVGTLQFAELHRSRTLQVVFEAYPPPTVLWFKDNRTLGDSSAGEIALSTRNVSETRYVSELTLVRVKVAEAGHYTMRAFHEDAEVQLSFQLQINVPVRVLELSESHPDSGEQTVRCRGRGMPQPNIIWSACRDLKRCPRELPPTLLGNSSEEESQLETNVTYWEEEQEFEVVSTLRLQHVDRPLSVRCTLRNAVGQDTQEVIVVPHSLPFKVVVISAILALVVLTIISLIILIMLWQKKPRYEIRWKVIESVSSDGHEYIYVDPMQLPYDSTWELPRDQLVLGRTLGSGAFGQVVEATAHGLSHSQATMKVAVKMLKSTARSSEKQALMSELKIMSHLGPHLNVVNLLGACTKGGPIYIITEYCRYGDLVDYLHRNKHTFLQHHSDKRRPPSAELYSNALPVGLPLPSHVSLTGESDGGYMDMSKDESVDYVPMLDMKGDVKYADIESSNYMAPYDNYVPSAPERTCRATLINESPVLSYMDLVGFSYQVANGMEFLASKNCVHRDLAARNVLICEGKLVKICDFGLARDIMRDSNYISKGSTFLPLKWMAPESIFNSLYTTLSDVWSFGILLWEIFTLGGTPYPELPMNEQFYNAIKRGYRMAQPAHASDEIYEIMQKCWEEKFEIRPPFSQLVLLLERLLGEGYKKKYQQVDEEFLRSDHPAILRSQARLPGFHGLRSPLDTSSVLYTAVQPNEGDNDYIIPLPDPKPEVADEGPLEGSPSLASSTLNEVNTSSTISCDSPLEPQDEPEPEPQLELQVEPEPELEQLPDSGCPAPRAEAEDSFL
Procedure: (§1) Effect of tyrphostins on PDGF-induced PDGFR autophosphorylation in intact PAEC cells: PAEC cells, transfected with either PDGFR or KDR, cultivated in Ham's F-12 medium supplemented with 10% fetal calf serum (FCS), were synchronized for 20 hours in a medium containing 0.01% BSA. […] After stimulation, the cells were solubilized in Nonidet P-40 (1%) containing lysis buffer.
The analysis of PDGF β-receptor phosphorylation was performed as follows. Cell lysates were subjected to immunoprecipitation using the PDGF β-receptor specific antiserum R3 [5]. The precipitates were subjected to polyacrylamide (7.5%) gel electrophoresis in presence of sodium dodecyl sulfate (SDS-PAGE) and were thereafter blotted onto a nitrocellulose membrane (Hybond C-EXTRA, Amersham). Phosphorylated proteins were detected by immunoblotting using the horseradish-peroxidase conjugated phosphotyrosine antibodies PY20 and 4G10 (Upstate Biotechnology), followed by application of secondary horseradish-peroxidase conjugated goat-anti-mouse antibody and chemoluminescence-based detection (ECL, Amersham) and autoradiography.
The data in Table 9 presents the differential potencies of the various compounds with respect to PDGFR and KDR, as was performed on intact PAEC cells expressing these receptors (see experimental methods section above).

KDR = target: T1, KDR (Homo sapiens, UniProt P35968); assay: KDR receptor phosphorylation in intact PAEC cells; assay type: cell-based; conditions: intact PAEC cells expressing KDR, VEGF stimulated; read-out: IC50 (50% inhibition of phosphorylation) KDR
T1 construct: expressed in transfected cells; host or cells: porcine aortic endothelial cells (PAEC), stably transfected
T1 sequence (P35968 20-1356): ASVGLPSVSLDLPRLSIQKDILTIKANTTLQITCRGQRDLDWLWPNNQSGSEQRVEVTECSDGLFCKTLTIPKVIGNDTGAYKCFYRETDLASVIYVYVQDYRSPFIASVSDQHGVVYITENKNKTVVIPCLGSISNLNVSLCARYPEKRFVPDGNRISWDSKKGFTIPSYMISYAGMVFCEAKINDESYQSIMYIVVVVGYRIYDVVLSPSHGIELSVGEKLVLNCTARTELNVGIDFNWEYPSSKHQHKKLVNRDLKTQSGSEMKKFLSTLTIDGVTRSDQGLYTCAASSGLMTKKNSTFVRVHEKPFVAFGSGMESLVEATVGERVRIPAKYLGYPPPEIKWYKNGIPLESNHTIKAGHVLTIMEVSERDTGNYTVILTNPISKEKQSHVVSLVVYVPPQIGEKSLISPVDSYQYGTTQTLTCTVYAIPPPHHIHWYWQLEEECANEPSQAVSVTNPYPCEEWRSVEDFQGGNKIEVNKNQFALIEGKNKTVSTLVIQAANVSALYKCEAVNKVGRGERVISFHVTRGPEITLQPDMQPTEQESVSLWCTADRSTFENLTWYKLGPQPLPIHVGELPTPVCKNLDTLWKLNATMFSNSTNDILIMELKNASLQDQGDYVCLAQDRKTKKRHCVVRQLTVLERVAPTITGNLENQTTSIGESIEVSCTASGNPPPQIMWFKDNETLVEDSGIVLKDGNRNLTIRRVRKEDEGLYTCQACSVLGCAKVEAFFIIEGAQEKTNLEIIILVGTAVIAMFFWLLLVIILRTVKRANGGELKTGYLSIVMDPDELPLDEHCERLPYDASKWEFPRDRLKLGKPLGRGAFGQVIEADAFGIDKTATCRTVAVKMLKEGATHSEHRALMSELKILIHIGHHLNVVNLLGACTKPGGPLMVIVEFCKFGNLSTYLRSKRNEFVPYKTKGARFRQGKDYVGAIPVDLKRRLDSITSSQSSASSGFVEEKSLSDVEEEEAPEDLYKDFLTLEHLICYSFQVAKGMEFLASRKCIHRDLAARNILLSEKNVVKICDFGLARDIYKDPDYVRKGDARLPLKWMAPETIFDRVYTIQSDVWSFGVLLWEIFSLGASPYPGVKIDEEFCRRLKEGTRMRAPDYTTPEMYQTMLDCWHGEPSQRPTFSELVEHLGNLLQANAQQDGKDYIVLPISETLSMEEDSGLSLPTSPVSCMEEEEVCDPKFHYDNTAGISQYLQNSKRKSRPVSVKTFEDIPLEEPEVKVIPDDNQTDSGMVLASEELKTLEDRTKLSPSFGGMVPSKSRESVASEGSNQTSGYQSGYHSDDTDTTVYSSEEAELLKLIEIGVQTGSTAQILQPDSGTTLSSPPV
Procedure: as §1
The analysis of KDR receptor phosphorylation was performed as follows. Cell lysates were subjected to immunoprecipitation using the KDR specific antiserum. The precipitates were subjected to polyacrylamide (7.5%) gel electrophoresis in presence of sodium dodecyl sulfate (SDS-PAGE) and were thereafter blotted onto a nitrocellulose membrane (Hybond C-EXTRA, Amersham). Phosphorylated proteins were detected by immunoblotting using the horseradish-peroxidase conjugated phosphotyrosine antibody RC20H (Transduction Laboratories), followed by chemoluminescence-based detection (ECL, Amersham) and autoradiography.

[1] = system: human coronary artery SMC (HCASMC); assay: HCASMC migration (Boyden chamber); assay type: cell-based
Procedure: Human coronary artery endothelial cells (HCAEC) and human coronary artery smooth muscle cells (HCASMC) were purchased from Clonetics (Heidelberg), and grown in EBM medium (supplemented with EGM-MV SINGLE QUOTS®) or in SmBM medium (supplemented with SmGM-2 SINGLE QUOTS®), respectively (Clonetics).
Assessment of cell migration (Chemotaxis assay): The chemotactic response of HCASMC, PAEC/KDR and PAEC/PDGFR cells was assessed using the modified Boyden chamber (Neuro Probe, Inc.) and collagen-coated polycarbonate filters (Nucleopore) with pore diameters of 8 μm as previously described. Briefly, PAEC/KDR and PAEC/PDGFR cells were cultivated and assayed in Ham's F12 medium containing 10% FCS. HCASMC were cultivated in SmGM-2 (clonetics) and assayed in SmBM-WM containing 10% FCS and 0.1% BSA. To the medium in the lower part of the Boyden chamber, either VEGF or PDGF-BB (10 ng/ml, respectively) were added. AG2033 was added to both upper and lower chamber parts. Suspended cells were given 4 hours for migration, after a preincubation period of 15 minute in AG2033. The number of cells that migrated without PDGF-BB or VEGF stimulation was referred to as 100% migration (chemokinesis). The assay was performed in triplicate, and five medium-power fields were counted per well using a light microscope (Jenalab).
Further evaluation of HCASMC cells migration toward PDGD-BB, in the presence of purified “transoid” isomers, was conducted in a Boyden chamber (see experimental section, above).

PDGFβR = target: T2, PDGFβR (Mus musculus, UniProt P05622); assay: PDGFR autophosphorylation, purified receptor from Swiss 3T3 cell membranes (cell free); assay type: biochemical; conditions: for % of Control (percent autokinase activity): isolated PDGFβR; for IC50: isolated PDGFR from Swiss 3T3 cell membranes, read-out: IC50 (50% inhibition of phosphorylation)
T2 construct: A preparation of purified PDGFR from Swiss 3T3 cell membranes was used; endogenous in cells
T2 sequence (P05622 32-1098): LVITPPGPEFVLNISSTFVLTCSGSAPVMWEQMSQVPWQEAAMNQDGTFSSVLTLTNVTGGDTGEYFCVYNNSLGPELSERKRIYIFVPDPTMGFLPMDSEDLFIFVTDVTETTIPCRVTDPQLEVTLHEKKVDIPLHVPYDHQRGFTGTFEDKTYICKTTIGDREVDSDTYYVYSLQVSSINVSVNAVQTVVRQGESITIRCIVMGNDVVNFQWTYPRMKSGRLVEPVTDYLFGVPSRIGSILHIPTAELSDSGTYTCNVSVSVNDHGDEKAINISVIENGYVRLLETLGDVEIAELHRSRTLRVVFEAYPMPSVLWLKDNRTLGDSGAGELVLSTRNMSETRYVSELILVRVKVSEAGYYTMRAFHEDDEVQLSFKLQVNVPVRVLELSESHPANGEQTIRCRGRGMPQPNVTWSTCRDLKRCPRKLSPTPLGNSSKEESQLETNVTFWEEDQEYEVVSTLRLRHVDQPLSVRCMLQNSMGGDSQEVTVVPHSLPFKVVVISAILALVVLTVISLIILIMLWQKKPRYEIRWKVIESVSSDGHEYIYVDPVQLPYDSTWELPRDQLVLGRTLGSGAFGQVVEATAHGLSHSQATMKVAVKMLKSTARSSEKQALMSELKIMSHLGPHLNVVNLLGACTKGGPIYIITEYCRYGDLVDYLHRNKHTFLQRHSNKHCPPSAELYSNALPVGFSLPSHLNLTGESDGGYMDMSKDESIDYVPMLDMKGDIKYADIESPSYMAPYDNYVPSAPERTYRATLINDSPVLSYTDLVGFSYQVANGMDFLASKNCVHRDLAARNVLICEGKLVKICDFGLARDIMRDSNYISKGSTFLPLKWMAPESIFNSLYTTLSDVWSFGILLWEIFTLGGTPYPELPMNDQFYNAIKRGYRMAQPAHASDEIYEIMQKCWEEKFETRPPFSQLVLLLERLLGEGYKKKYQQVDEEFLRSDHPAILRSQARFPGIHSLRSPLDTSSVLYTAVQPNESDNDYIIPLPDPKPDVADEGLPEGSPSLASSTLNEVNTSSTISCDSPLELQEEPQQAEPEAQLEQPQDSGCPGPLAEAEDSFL
Procedure: In vitro effect of tyrphostins on purified PDGFR autophosphroylation: Membranes were prepared from confluent cultures of canine kidney epithelial cells (TRMP) or Swiss 3T3 cells as described. Further purification of the PDGF-βR was performed as described in [23]. Briefly, 2 μl kinase preparation were incubated for 20 minutes on ice in the presence of 2 μg/ml PDGF-BB in 20 μl of 50 mM Hepes (pH 7.4). Kinase reaction was executed for 10 minute on ice with 5 mM MnCl2, 1 mM vanadate, 10 μM [γ-^32P]ATP (2.5 μCi per reaction). The reaction was terminated by addition of 10 μl of a solution containing 6% SDS, 30% β-mercaptoethanol, 40% glycerol, and 0.5 mg/ml bromophenol blue. The samples were heated for 5 minutes at 95° C. and subjected to polyacrylamide gel electrophoresis in the presence of 0.4% SDS, using 7.5% polyacrylamide gels. The gels were stained, dried and subjected to autoradiographic analysis. For quantification of radioactivity in electrophoresis gels, a Phospho-Imager (Molecular Dynamics, Fuji, or Bio-Rad) was used according to the instructions of the manufacturer. To obtain autoradiograms, objects were exposed to X-ray film (Fuji RX or Kodak X-OMAT) with intensifying screens at −70° C.
Inhibition of PDGF-induced tyrosine phosphorylation by tyrphostins in vitro: A preparation of purified PDGFR from Swiss 3T3 cell membranes was used to assess and compare the inhibitory effects of tyrphostin compounds on tyrosine kinase activity. Various concentrations of the purified “transoid” isomers AG2033 and AG2043, were evaluated. Table 8 below presents IC50 values (50% inhibition of phosphorylation, μM) of AG2033 and AG2043. Data presents the potencies of the compounds with respect to PDGFR, as was determined using the isolated receptor (see experimental methods section above).
Kinase reactions, using an isolated PDGFβR preparation, in the presence of 0.03-3 μM tyrphostin, were conducted, utilizing [γ-^32P]ATP as probe. Densitometric evaluation, relative to control lacking the tyrphostin inhibitor (100%), results in the percent autokinase activity, presented in Table 8 and in the dose-response curves for the purified transoid isomers AG2033 (FIG. 6) and AG2043 (FIG. 7). Further comparison between the resulting autoradiogrms for each pair of geometrical isomers AG2033 and AG2034 (upper panel); AG2043 and AG2044 (lower panel), for their inhibitory activity towards PDGF-induced PDGFβR autophosphorylation (concentration range: 0.1-10 μM) in intact cells is presented in FIG. 8. […] Similar potency relation exists between the AG2043 and AG2044 isomers.

[2] = absence of PDGF-BB, read-out: IC50 of basal migratory activity of HCASMC
[3] = presence of PDGF-BB, read-out: IC50 of induced migratory activity of HCASMC
[4] = 0.03 μM tyrphostin, [γ-32P]ATP, densitometry

| IC50 (PDGF β-receptor) [nM] | IC50 (KDR) [nM] | IC50 [1, 2] [nM] | IC50 [1, 3] [nM] | % of Control (percent autokinase activity) (PDGFβR; [4]) | % of Control (percent autokinase activity) (PDGFβR; 0.1 μM tyrphostin) | % of Control (percent autokinase activity) (PDGFβR; 0.3 μM tyrphostin) | % of Control (percent autokinase activity) (PDGFβR; 1 μM tyrphostin) | % of Control (percent autokinase activity) (PDGFβR; 3 μM tyrphostin) | IC50 (PDGFβR) [nM] | SMILES |
| --- | --- | --- | --- | --- | --- | --- | --- | --- | --- | --- |
| 1000 | 3000 | < 10000 | ~3000 | 60.1 % of Control | 41.6 % of Control | 40.4 % of Control | 15.1 % of Control | 11 % of Control | 90 | Cc1nc2cc3nc(-c4cccs4)cnc3cc2n1C [AG2043, 1,2-dimethyl-6-(2-thiophene) imidazolo[5,4-g]quinoxaline] |
| 500 | > 10000 | < 10000 | < 3000 | 97.9 % of Control | 37 % of Control | 17.9 % of Control | 13.7 % of Control | 9.8 % of Control | 70 | Cc1nc2cc3nc(-c4ccccc4)cnc3cc2n1C [AG2033, 1,2-dimethyl-6-phenyl imidazolo[5,4-g]quinoxaline] |
